Where two headings read alike, the source gives them in different places.
How the values were obtained:
Experiment in all cases: cell-based
[1] = biological target: T1, CAT1 (cationic amino acid transporter 1, CAT1/SLC7A1) (Homo sapiens, UniProt P30825); set-up: species or system HEK-CAT1 (HEK293 stably transfected); Inhibition of net CAT1-mediated [3H]-ADMA (1 uM) uptake, 2.5 min, scintillation counting, vector control subtracted; conditions: HEK293, ADMA 1 uM as substrate; for inhibition at 20 µM: read-out: % Inhibition of ADMA uptake at 20 µM; for inhibition at 200 µM: read-out: % Inhibition of ADMA uptake at 200 µM
T1 construct: full-length human transporter stably transfected in HEK cells (HEK-CAT1); net uptake against HEK-VC vector control cells
T1 sequence (P30825 whole entry): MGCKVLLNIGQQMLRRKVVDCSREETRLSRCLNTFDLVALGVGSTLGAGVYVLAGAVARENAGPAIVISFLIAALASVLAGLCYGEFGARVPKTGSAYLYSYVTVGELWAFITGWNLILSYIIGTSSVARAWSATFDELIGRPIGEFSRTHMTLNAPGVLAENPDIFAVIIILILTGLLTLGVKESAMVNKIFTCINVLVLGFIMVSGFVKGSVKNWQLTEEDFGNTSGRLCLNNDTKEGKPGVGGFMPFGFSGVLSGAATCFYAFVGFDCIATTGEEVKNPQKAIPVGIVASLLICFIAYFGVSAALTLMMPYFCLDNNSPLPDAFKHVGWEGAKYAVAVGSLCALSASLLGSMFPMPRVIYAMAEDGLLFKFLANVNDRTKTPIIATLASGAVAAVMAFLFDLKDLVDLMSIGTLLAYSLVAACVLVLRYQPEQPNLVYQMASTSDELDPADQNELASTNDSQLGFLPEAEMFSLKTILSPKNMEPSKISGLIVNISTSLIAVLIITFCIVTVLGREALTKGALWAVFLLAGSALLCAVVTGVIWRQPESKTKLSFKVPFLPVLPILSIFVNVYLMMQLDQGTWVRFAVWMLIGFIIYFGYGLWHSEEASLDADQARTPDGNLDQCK
Experimental: (§1) Uptake and inhibition assays using HEK-CAT1 and HEK-VC cells and L-arginine, L-homoarginine, and ADMA as substrates were performed using the protocol described (Strobel et al. [2012]; Chafai et al. [2017]). Briefly, after incubation, the supernatant was replaced with transport buffer containing [^3H]- L-arginine for 5 min and 2.5 min for medium containing [^3H]-L-homoarginine or [^3H]-ADMA with or without the test compound. The reference drugs were screened at concentrations of 20 µM (Figs. 1A, 2A, and 3A) and 200 µM (Figs. 1B, 2B, and 3B). […] The net uptake was determined by subtracting the total amount taken up by control cells from the amount taken up by CAT1-expressing cells, which was expressed as a percentage of the amount taken up by the control. To determine the inhibitory effects of the drugs on CAT1-mediated transport of L-arginine, L-homoarginine, or ADMA, the control was measured in the absence of the potential inhibitor. The value for the percent inhibition was calculated as: Inhibition (%) = 100 – (V/V0 ^* 100), where V and V0 are the net uptake rates (uptake into HEK-CAT1 cells—uptake into HEK-VC cells) with and without test drugs, respectively. […] Each bar represents the effect of one compound on CAT1-mediated ADMA (1 μM) uptake as percent inhibition. Data were obtained from at least two independent experiments performed in triplicate (n = 6–9) and each test data from the independent experiment were normalized to the respective control data to get the value of percent inhibition. Negative inhibition values indicate stimulated CAT1-mediated uptake. Data were analyzed using one-way ANOVA and Dunnett’s multiple comparison test with p < 0.05. Bars showing a statistically significant inhibition or transport stimulation are shaded in black

[2] = biological target: T1, CAT1 (cationic amino acid transporter 1, CAT1/SLC7A1); set-up: species or system HEK-CAT1 (HEK293 stably transfected); Inhibition of net CAT1-mediated [3H]-L-homoarginine (1 uM) uptake, 2.5 min, scintillation counting, vector control subtracted; conditions: HEK293, L-homoarginine 1 uM as substrate; for inhibition at 20 µM: read-out: % Inhibition of L-homoarginine uptake at 20 µM; for inhibition at 200 µM: read-out: % Inhibition of L-homoarginine uptake at 200 µM
Experimental: as §1, with “CAT1-mediated L-homoarginine” for “CAT1-mediated ADMA”

[3] = biological target: T1, CAT1 (cationic amino acid transporter 1, CAT1/SLC7A1); set-up: species or system HEK-CAT1 (HEK293 stably transfected); Inhibition of net CAT1-mediated [3H]-L-arginine (100 uM) uptake, 5 min, scintillation counting, vector control subtracted; conditions: HEK293, L-arginine 100 uM as substrate; for inhibition at 20 µM: read-out: % Inhibition of L-arginine uptake at 20 µM; for inhibition at 200 µM: read-out: % Inhibition of L-arginine uptake at 200 µM
Experimental: as §1, with “L-arginine (100” for “ADMA (1”

SMILES | inhibition at 20 µM [1] [%] | inhibition at 200 µM [1] [%] | inhibition at 20 µM [2] [%] | inhibition at 200 µM [2] [%] | inhibition at 20 µM [3] [%] | inhibition at 200 µM [3] [%]
O[C@@H](CNC[C@H](O)[C@H]1CCc2cc(F)ccc2O1)[C@@H]1CCc2cc(F)ccc2O1 (racemic) [Nebivolol] | -2.9 ± 1.7 | -6.6 ± 15.4 | -4.6 ± 1.9 | 0.3 ± 3.1 | 5.2 ± 3 | 1.3 ± 2.9
Nc1nc(NC2CC2)c2ncn([C@H]3C=C[C@@H](CO)C3)c2n1 [Abacavir] | -4.3 ± 2.2 | -78.1 ± 1.9 | -3.1 ± 2 | -9.8 ± 1.7 | -0.9 ± 1.81 | -12.4 ± 6
CC(=O)Nc1ccc(O)cc1 [Acetaminophen] | -14.7 ± 3.8 | -3.9 ± 3.4 | 8.1 ± 4.7 | 4.4 ± 0.7 | 6.6 ± 4.9 | 2.4 ± 1.6
CC(=O)Nc1nnc(S(N)(=O)=O)s1 [Acetazolamide] | -1.5 ± 0.9 | 9.7 ± 1.9 | -10.9 ± 11.9 | 8.8 ± 2.1 | -12.8 ± 12.9 | 8.9 ± 3.9
CC(=O)N[C@@H](CS)C(=O)O [Acetylcysteine] | 3.2 ± 3.2 | -6.1 ± 4.3 | -9 ± 1.5 | 7.5 ± 1.3 | -6.6 ± 3.7 | 4.6 ± 3.3
Oc1ncnc2[nH]ncc12 [Allopurinol] | 16.9 ± 2.6 | 2 ± 7 | – | -2.6 ± 1.6 | 5 ± 16.4 | 14.1 ± 9.6
Cc1nnc2n1-c1ccc(Cl)cc1C(c1ccccc1)=NC2 [Alprazolam] | 5.8 ± 3.8 | 4.1 ± 9.5 | -4.3 ± 5.2 | 9.6 ± 1 | -3.9 ± 5.3 | 8 ± 2.7
NC12CC3CC(CC(C3)C1)C2 [Amantadine] | 5.3 ± 3 | -5.7 ± 11.1 | 11.9 ± 5.6 | -19.7 ± 2.6 | -14.2 ± 7.4 | -76 ± 4.5
N=C(N)NC(=O)c1nc(Cl)c(N)nc1N [Amiloride] | 1.5 ± 3.2 | -17.1 ± 2.3 | 1.5 ± 3.2 | 12.6 ± 2.6 | -0.1 ± 9.7 | 10.9 ± 3.9
CN(C)CCC=C1c2ccccc2CCc2ccccc21 [Amitriptyline] | 5.6 ± 2.9 | -13.4 ± 3 | 0.6 ± 1.7 | 29.7 ± 3.2 | 35.9 ± 3.6 | 26.9 ± 4.7
CCOC(=O)C1=C(COCCN)NC(C)=C(C(=O)OC)C1c1ccccc1Cl (stereo not drawn) [Amlodipine] | -7.3 ± 1.7 | 4 ± 9.5 | -9.3 ± 3.3 | -3.9 ± 4.6 | -3.9 ± 5.2 | -2.6 ± 3.9
CC1(C)S[C@@H]2[C@H](NC(=O)[C@H](N)c3ccc(O)cc3)C(=O)N2[C@H]1C(=O)O [Amoxicillin] | 2.7 ± 5.9 | 10.2 ± 3.2 | 13.3 ± 1 | 8.8 ± 1.1 | 14.9 ± 2 | 5.9 ± 2.9
CC1(C)S[C@@H]2[C@H](NC(=O)[C@H](N)c3ccccc3)C(=O)N2[C@H]1C(=O)O [Ampicillin] | 20.2 ± 2.8 | -4.1 ± 2.8 | -2.5 ± 2.7 | -6.6 ± 3.6 | -2.5 ± 2.7 | 6.7 ± 1.4
Cc1cc(=O)n(-c2ccccc2)n1C [Antipyrine] | 1.9 ± 2.5 | -1.2 ± 6.1 | -8.2 ± 6 | 12.8 ± 1.4 | -5.1 ± 7.2 | -12.7 ± 2.5
CC[C@H]1OC(=O)[C@H](C)[C@@H](O[C@H]2C[C@@](C)(OC)[C@@H](O)[C@H](C)O2)[C@H](C)[C@@H](O[C@@H]2O[C@H](C)C[C@H](N(C)C)[C@H]2O)[C@](C)(O)C[C@@H](C)CN(C)[C@H](C)[C@@H](O)[C@]1(C)O [Azithromycin] | 2.8 ± 3.4 | 12.9 ± 3.7 | 20.8 ± 3.3 | 26.8 ± 2.3 | 7 ± 7.2 | 16.7 ± 5.2
CCOC(=O)[C@H](CCc1ccccc1)N[C@H]1CCc2ccccc2N(CC(=O)O)C1=O [Benazepril] | 28.7 ± 4.6 | 3.1 ± 3.8 | 1.1 ± 4.5 | 5.8 ± 2.4 | 1.1 ± 4.5 | 2.7 ± 6
CCc1oc2ccccc2c1C(=O)c1cc(Br)c(O)c(Br)c1 [Benzbromarone] | -6.9 ± 4.6 | -13.2 ± 5.9 | -10.8 ± 5.3 | -23.2 ± 1.6 | -12.4 ± 6.1 | -31.3 ± 4.9
C[C@]12CC[C@@H]3c4ccc(O)cc4CC[C@H]3[C@@H]1CC[C@@H]2O [Beta estradiol] | -9.8 ± 7.2 | -32.9 ± 6.4 | -0.1 ± 4.2 | -13.7 ± 11.3 | 0.3 ± 4.5 | -19.1 ± 7.2
CC(C)NCC(O)COc1ccc(COCCOC(C)C)cc1 (stereo not drawn) [Bisoprolol] | -2.8 ± 1.6 | 16.2 ± 4.2 | -11.1 ± 1.9 | -14.9 ± 2.5 | -13.1 ± 0.7 | -17.2 ± 15.5
CCC(C)(C)C(=O)O[C@H]1C[C@@H](C)C=C2C=C[C@H](C)[C@H](CC[C@@H]3C[C@@H](O)CC(=O)O3)[C@H]21 [Simvastatin] | -18.1 ± 15 | -4.2 ± 3.5 | – | – | -4.1 ± 0.6 | -10.5 ± 3.3
